Read-outs that look alike come from different tables or passages of the source.
Legend:
[1] = target: Aurora B (Homo sapiens (Human), UniProt Q96GD4); experiment: Dundee profiling
[2] = target: TSSK1 (Homo sapiens (Human), UniProt Q9BXA7); experiment: Dundee profiling
[3] = target: ULK3 (Homo sapiens (Human), UniProt Q6PHR2); experiment: KinomeScan; type: binding; conditions: 1 uM
[4] = target: PIM3 (Homo sapiens (Human), UniProt Q86V86); experiment: Dundee profiling
[5] = target: EPHA5 (Homo sapiens (Human), UniProt P54756); experiment: KinomeScan; type: binding; conditions: 1 uM
[6] = target: ARK5 (Homo sapiens (Human), UniProt O60285); experiment: KinomeScan; type: binding; conditions: 1 uM
[7] = target: ERK2 (Homo sapiens (Human), UniProt P28482); experiment: Dundee profiling
[8] = target: JAK1 (JH2domain-pseudokinase) (Homo sapiens (Human), UniProt P23458); experiment: KinomeScan; type: binding; conditions: 1 uM
[9] = target: CDK2-Cyclin A (Homo sapiens (Human), UniProt P24941); experiment: Dundee profiling
[10] = target: WNK1 (Homo sapiens (Human), UniProt Q9H4A3); experiment: Dundee profiling
[11] = target: CHEK1 (Homo sapiens (Human), UniProt O14757); experiment: KinomeScan; type: binding; conditions: 1 uM
[12] = target: MST1 (Homo sapiens (Human), UniProt Q13043); experiment: KinomeScan; type: binding; conditions: 1 uM
[13] = target: EIF2AK3 (Homo sapiens (Human), UniProt Q9NZJ5); experiment: Dundee profiling
[14] = target: LRRK2 (Mus musculus (Mouse), UniProt Q5S006); experiment: Pharmacodynamic study, LRRK2 Ser910/Ser935 phosphorylation in mouse kidney, spleen and brain; type: in vivo
Sequence of LRRK2 (Q5S006 whole entry, looked up): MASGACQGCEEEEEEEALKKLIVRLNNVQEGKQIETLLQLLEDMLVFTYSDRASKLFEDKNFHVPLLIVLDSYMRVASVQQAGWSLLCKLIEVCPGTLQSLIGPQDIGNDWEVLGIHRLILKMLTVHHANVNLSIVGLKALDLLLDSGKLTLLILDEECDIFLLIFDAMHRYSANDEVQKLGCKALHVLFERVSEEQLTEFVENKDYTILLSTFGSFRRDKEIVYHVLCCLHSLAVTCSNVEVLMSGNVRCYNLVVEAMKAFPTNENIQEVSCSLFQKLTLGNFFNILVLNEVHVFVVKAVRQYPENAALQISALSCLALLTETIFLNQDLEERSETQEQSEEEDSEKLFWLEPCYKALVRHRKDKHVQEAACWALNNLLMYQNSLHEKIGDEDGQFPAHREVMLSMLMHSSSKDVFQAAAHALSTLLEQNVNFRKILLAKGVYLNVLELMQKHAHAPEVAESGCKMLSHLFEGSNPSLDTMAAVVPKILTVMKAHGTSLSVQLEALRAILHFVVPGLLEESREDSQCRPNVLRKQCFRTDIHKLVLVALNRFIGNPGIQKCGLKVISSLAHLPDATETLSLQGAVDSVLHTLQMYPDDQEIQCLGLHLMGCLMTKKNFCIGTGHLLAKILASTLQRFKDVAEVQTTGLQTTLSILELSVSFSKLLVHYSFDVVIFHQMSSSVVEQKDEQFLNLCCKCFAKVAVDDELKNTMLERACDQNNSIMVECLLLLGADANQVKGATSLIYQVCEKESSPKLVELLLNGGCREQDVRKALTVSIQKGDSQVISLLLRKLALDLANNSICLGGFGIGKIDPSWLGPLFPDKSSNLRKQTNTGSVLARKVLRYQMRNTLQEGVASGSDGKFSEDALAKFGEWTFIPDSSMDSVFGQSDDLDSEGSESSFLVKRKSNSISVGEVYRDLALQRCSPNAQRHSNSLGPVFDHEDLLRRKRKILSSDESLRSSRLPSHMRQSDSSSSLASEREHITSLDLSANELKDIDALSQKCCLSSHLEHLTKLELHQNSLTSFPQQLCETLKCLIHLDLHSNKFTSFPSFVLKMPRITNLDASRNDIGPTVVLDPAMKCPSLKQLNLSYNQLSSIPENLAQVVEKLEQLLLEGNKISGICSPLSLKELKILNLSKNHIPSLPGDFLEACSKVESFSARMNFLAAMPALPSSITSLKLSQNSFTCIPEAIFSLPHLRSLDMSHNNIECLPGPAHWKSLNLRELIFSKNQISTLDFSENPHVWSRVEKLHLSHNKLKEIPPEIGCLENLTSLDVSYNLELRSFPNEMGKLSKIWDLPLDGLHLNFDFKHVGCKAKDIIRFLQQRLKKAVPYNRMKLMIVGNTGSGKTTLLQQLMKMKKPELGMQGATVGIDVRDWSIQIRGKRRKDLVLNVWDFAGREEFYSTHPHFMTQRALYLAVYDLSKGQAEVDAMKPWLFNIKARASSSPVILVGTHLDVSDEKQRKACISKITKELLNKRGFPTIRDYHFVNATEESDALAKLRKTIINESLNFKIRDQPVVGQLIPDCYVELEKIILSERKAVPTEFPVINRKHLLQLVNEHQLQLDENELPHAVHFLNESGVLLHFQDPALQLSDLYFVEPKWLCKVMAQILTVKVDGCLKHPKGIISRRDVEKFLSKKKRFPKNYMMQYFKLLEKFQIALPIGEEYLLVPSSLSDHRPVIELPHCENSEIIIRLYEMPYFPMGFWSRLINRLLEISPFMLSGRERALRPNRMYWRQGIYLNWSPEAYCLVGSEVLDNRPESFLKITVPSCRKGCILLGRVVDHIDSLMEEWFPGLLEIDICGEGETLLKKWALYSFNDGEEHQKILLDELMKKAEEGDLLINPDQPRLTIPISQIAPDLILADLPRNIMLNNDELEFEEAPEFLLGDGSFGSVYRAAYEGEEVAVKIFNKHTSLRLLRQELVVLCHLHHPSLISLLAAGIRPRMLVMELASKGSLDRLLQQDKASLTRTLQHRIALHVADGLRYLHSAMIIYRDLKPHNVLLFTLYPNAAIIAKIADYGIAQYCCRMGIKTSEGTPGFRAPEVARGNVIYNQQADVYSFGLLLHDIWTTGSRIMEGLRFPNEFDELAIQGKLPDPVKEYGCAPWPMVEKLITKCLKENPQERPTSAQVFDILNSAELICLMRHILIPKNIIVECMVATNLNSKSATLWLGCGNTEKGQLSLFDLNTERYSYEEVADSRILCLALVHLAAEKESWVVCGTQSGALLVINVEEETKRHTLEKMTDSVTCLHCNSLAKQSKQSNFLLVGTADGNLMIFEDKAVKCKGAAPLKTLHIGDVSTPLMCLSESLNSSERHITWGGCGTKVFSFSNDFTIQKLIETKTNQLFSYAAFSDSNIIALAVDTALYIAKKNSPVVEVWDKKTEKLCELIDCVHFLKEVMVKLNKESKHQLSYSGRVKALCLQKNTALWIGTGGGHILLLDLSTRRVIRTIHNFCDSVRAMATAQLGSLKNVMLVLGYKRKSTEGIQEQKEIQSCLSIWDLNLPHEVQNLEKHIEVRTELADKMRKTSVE

[15] = target: JAK2 (Homo sapiens (Human), UniProt O60674); experiment: Dundee profiling
[16] = target: CSNK1G3 (Homo sapiens (Human), UniProt Q9Y6M4); experiment: KinomeScan; type: binding; conditions: 1 uM
[17] = target: NUAK1 (Homo sapiens (Human), UniProt O60285); experiment: Dundee profiling
[18] = target: JAK1 (JH1domain-catalytic) (Homo sapiens (Human), UniProt P23458); experiment: KinomeScan; type: binding; conditions: 1 uM
[19] = target: SNARK (Homo sapiens (Human), UniProt Q9H093); experiment: KinomeScan; type: binding; conditions: 1 uM
[20] = target: PAK2 (Homo sapiens (Human), UniProt Q13177); experiment: Dundee profiling
[21] = target: PKMYT1 (Homo sapiens (Human), UniProt Q99640); experiment: KinomeScan; type: binding; conditions: 1 uM
[22] = target: IRAK1 (Homo sapiens (Human), UniProt P51617); experiment: Dundee profiling
[23] = target: CSK (Homo sapiens (Human), UniProt P41240); experiment: KinomeScan; type: binding; conditions: 1 uM
[24] = target: SYK (Homo sapiens (Human), UniProt P43405); experiment: Dundee profiling
[25] = target: CDK8 (Homo sapiens (Human), UniProt P49336); experiment: KinomeScan; type: binding; conditions: 1 uM
[26] = target: TYK2 (JH2domain-pseudokinase) (Homo sapiens (Human), UniProt P29597); experiment: KinomeScan; type: binding; conditions: 1 uM
[27] = target: LRRK2[G2019S] (Homo sapiens (Human), UniProt Q5S007, G2019S); experiment: LRRK2 enzyme kinase assay, G2019S; type: biochemical; conditions: Table 1; ATP at Km 112 μm
[28] = target: DLK (Homo sapiens (Human), UniProt Q12852); experiment: KinomeScan; type: binding; conditions: 1 uM
[29] = target: LZK (Homo sapiens (Human), UniProt O43283); experiment: KinomeScan; type: binding; conditions: 1 uM
[30] = target: RSK2 (Homo sapiens (Human), UniProt P51812); experiment: Dundee profiling
[31] = target: PRKR (Homo sapiens (Human), UniProt P19525); experiment: KinomeScan; type: binding; conditions: 1 uM
[32] = target: MAPKAP-K3 (Homo sapiens (Human), UniProt Q16644); experiment: Dundee profiling
Sequence of MAPKAP-K3 (Q16644 whole entry, species assumed): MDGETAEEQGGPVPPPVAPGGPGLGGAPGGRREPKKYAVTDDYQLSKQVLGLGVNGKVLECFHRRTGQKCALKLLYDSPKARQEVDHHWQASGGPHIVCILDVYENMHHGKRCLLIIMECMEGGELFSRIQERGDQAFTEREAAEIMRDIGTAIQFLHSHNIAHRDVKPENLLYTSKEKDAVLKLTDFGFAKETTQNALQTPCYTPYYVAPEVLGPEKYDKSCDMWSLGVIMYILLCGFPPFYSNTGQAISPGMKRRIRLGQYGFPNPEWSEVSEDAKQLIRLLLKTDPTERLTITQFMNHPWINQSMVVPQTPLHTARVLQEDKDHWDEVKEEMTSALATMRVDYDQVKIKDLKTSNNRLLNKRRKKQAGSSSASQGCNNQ

[33] = target: YES1 (Homo sapiens (Human), UniProt P07947); experiment: Dundee profiling
[34] = target: TBK1 (Homo sapiens (Human), UniProt Q9UHD2); experiment: Dundee profiling
Sequence of TBK1 (Q9UHD2 whole entry, looked up, species assumed): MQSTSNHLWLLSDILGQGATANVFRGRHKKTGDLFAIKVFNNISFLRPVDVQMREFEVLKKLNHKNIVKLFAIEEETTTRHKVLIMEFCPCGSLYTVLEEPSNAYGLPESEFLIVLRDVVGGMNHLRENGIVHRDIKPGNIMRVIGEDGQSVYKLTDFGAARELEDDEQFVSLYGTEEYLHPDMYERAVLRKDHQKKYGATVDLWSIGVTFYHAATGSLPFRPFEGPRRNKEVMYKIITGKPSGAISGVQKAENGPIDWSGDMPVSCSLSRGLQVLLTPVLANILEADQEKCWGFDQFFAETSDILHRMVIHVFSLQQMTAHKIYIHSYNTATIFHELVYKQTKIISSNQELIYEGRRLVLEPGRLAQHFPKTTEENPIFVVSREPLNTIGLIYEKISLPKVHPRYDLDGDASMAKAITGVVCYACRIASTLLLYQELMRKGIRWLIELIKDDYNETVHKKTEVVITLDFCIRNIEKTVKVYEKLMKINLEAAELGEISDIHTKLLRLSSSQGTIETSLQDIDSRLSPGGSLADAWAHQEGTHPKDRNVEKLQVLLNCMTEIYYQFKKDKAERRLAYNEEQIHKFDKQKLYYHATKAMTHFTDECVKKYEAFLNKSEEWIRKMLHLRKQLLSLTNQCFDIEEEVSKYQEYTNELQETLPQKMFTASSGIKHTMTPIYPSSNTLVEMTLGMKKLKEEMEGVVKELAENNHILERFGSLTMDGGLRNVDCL

[35] = target: SRPK1 (Homo sapiens (Human), UniProt Q96SB4); experiment: Dundee profiling
Sequence of SRPK1 (Q96SB4 whole entry, looked up, species assumed): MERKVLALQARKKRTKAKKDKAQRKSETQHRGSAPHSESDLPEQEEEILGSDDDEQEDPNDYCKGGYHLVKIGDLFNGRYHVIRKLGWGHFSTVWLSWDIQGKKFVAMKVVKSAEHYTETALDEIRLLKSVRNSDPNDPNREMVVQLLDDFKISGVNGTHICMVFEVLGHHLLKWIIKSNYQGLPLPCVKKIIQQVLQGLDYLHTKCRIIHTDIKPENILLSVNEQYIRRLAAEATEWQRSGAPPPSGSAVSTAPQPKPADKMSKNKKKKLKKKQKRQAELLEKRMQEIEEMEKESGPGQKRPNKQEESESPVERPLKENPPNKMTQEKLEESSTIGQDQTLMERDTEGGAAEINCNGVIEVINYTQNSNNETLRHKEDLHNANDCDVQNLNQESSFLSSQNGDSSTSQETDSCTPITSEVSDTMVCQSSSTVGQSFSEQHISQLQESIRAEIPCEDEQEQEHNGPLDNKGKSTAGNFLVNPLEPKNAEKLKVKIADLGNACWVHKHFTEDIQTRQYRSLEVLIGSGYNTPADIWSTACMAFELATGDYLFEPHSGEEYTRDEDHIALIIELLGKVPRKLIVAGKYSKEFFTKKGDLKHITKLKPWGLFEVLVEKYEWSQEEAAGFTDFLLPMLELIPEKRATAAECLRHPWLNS

[36] = target: DCAMKL1 (Homo sapiens (Human), UniProt O15075); experiment: KinomeScan; type: binding; conditions: 1 uM
[37] = read-out: percent remaining enzymatic activity, I1, 1 μM
[38] = read-out: percent remaining enzymatic activity, I10
[39] = read-out: percent remaining enzymatic activity

Sequence of Aurora B (Q96GD4 whole entry): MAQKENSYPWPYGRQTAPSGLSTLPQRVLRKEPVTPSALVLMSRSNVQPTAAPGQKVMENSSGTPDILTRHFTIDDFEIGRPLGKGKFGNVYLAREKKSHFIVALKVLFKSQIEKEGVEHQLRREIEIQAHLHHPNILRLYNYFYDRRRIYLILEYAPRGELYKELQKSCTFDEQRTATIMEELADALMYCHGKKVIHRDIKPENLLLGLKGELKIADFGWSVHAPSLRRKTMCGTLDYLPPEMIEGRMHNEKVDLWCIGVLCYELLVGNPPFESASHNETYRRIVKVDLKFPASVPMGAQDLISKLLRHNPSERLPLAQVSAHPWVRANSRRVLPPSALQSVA

In the case of `CNc1nc(Nc2ccc(C(=O)N3CCOCC3)cc2OC)nc2[nH]cc(Cl)c12` [Compound 18, (4-((5-chloro-4-(methylamino)-7H-pyrrolo[2,3-d]pyrimidin-2-yl)amino)-3-methoxyphenyl)(morpholino)methanone], the remaining activity at 1 µM [1, 37] is reported as 97%, the remaining activity at 1 µM [1, 38] is reported as 90% and the remaining activity at 1 µM [2, 37] is reported as 14%. For the same compound, the remaining activity at 1 µM [2, 38] was 7%, the KinomeScan value [3] was 96 and the remaining activity at 1 µM [4, 37] was 96%. For the same compound, the remaining activity at 1 µM [4, 38] was 75%, the KinomeScan value [5] was 98 and the KinomeScan value [6] was 89. The remaining activity at 1 µM [7, 37] was 94%, the remaining activity at 1 µM [7, 38] was 71% and the KinomeScan value [8] was 99. For the same compound, the “percent remaining enzymatic activity” value ([9]; I10) was 67%, the remaining activity at 1 µM [9, 39] was 102% and the “percent remaining enzymatic activity” value ([10]; I10) was 115%. The remaining activity at 1 µM [10, 39] was 108%, the KinomeScan value [11] was 100 and the KinomeScan value [12] was 100. For the same compound, the remaining activity at 1 µM [13, 37] was 102%, the remaining activity at 1 µM [13, 38] was 79% and the “inhibition of LRRK2 Ser935 phosphorylation in brain” value ([14]; 10 mg/kg) was “only partial inhibition in brain”. For the same compound, the “inhibition of LRRK2 Ser935 phosphorylation in tissues” value ([14]; 30 mg/kg) was “near complete inhibition in all tissues”, the “dephosphorylation of Ser935 of LRRK2 in kidney, spleen and brain” value ([14]; 100 mg/kg, intraperitoneal) was “near complete dephosphorylation of Ser935 of LRRK2” and the “percent remaining enzymatic activity” value ([15]; I10) was 97%. The remaining activity at 1 µM [15, 39] was 99%, the KinomeScan value [16] was 100 and the “percent remaining enzymatic activity” value ([17]; I10) was 17%. The remaining activity at 1 µM [17, 39] was 75%, the KinomeScan value [18] was 77 and the KinomeScan value [19] was 100. The remaining activity at 1 µM [20, 37] was 110%, the remaining activity at 1 µM [20, 38] was 102% and the KinomeScan value [21] was 100. For the same compound, the remaining activity at 1 µM [22, 37] was 109%, the remaining activity at 1 µM [22, 38] was 92% and the KinomeScan value [23] was 100. The “percent remaining enzymatic activity” value ([24]; I10) was 81%, the remaining activity at 1 µM [24, 39] was 91% and the KinomeScan value [25] was 74. For the same compound, the KinomeScan value [26] was 100, the IC50 [27] was 2.2 nM and the KinomeScan value [28] was 89. The KinomeScan value [29] was 92, the remaining activity at 1 µM [30, 37] was 117% and the remaining activity at 1 µM [30, 38] was 94%. It also gave a KinomeScan value [31] of 96, a remaining activity at 1 µM [32, 37] of 97% and a remaining activity at 1 µM [32, 38] of 84%. The “percent remaining enzymatic activity” value ([33]; I10) was 85%, the remaining activity at 1 µM [33, 39] was 85% and the remaining activity at 1 µM [34, 37] was 88%. For the same compound, the remaining activity at 1 µM [34, 38] was 67%, the remaining activity at 1 µM [35, 37] was 89% and the remaining activity at 1 µM [35, 38] was 31%. The KinomeScan value [36] was 74.
